Results from patent US5393923A, “3,5-di-t-butyl-4-hydroxyphenylmethylhydroxylamines and their derivatives, pharmaceutical compositions, and methods of use therefor” (Warner-Lambert Company, priority 1993, dated 1995).
Structures can show the parent of a compound that is named as a salt. Where two headings read alike, the source gives them in different places.

Columns and labels:
5-lipoxygenase = target: T1, 5-lipoxygenase (Rattus norvegicus, UniProt P12527); test: ARBL whole cell 5-lipoxygenase assay (LTB4 formation, RBL-1 cells); format: cell-based
T1 construct: host or cells: RBL-1
T1 sequence (P12527 1-673): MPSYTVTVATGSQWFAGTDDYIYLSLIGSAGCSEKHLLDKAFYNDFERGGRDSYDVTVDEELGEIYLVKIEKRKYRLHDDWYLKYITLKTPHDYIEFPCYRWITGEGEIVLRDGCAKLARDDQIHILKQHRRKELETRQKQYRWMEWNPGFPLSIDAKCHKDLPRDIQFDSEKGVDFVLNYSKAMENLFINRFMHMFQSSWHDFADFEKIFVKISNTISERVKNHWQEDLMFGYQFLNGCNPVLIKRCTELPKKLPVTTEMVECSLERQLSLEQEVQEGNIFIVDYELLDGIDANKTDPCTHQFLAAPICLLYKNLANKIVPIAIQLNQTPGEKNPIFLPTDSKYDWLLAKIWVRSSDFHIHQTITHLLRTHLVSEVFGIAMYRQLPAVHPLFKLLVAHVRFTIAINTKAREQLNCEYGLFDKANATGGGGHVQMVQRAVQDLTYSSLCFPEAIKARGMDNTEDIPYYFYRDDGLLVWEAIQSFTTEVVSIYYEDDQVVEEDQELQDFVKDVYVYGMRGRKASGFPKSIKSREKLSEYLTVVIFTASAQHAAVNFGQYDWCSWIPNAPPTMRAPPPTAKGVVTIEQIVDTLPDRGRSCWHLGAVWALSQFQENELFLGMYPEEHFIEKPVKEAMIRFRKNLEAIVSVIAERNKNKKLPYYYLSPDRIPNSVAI
Experimental: (§1) ARBL/ARBC WHOLE CELL 5-LIPOXYGENASE AND CYCLOOXYGENASE ASSAYS The rat basophilic leukemia cell line (RBL-1) was obtained from the American Type Culture Collection (Rockville, Md.). Radioimmunoassay (RIA) kits of LTB4 and PGF2α were obtained from Amersham (Arlington Heights, Ill.) and Seragen (Boston, Mass.), respectively. RBL-1 cells are grown in suspension culture in Eagle's minimum essential medium supplemented with 12% fetal bovine serum at 37° C. in an incubator supplied with air-5% carbon dioxide. Cells are harvested by centrifugation. They are washed with cold phosphate-buffered saline, pH 7.4 (PBS; NaCl, 7.1 g; Na2 HPO4, 1.15 g; KH2 PO4, 0.2 g; and KCl, 0.2 g/L). Cells are finally suspended in PBS containing 1.0 mM calcium at a density of 2×10^6 cells/mL. Cells are incubated […] test agent (in DMSO) (1% DMSO is without effect on arachidonic acid metabolism) for 10 minutes at room temperature. Calcium ionophore A23187 (5 μM) is added and cells are incubated for 7 minutes at 37° C. The reaction is stopped by chilling the tubes on ice for 10 minutes. Cells are separated by centrifugation and the supernatant is stored at -20° C. Aliquots (100 μL) are analyzed for LTB4 and PGF2α using radioimmunoassay kits as provided by the supplier. Table 1 contains biochemical data for compounds of Formula I obtained from this whole cell assay as amount of inhibition at given μM or IC50 s which are calculated as the concentration of a test compound in micromoles (μM) causing 50% inhibition of LTB4 or PGF2αformation.

cyclooxygenase = target: T2, cyclooxygenase (Rattus norvegicus, UniProt Q63921); test: ARBC whole cell cyclooxygenase assay (PGF2α formation, RBL-1 cells); format: cell-based
T2 construct: host or cells: RBL-1
T2 sequence (Q63921 27-602): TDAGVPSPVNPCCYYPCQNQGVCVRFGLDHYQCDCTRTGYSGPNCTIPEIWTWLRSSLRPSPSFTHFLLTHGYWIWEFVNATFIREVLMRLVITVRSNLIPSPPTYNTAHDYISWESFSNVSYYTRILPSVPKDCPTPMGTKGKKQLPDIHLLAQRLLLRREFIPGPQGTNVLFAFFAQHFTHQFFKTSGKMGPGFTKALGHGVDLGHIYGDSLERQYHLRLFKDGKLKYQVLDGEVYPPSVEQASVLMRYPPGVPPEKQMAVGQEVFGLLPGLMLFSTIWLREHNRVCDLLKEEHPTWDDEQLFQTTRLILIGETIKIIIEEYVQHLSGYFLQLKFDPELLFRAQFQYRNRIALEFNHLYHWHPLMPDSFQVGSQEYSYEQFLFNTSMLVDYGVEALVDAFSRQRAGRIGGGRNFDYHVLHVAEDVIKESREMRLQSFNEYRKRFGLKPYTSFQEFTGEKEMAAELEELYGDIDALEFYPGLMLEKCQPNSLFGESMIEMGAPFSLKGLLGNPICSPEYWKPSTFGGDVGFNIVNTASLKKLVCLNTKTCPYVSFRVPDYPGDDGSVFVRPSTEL
Experimental: as §1

[1] = system: carrageenan-induced rat foot paw edema; test: Carrageenan-induced rat foot paw edema-2 (CFE-2) assay; format: in vivo; settings: dosed 1 hour before carrageenan, edema measured 5 hours after, read-out: CFE ID40
Experimental: CARRAGEENAN-INDUCED RAT FOOT PAW EDEMA-2 (CFE-2) ASSAY: PROTOCOL
Carrageenan solution (1% w/v) is prepared by dissolving 100 mg carrageenan (Marine Colloidal Div., Springfield, N.J.) in 10 mL of sterile saline (0.9%) solution (Travenol). The solution is vortexed for 30 to 45 minutes. Animals are dosed with compound 1 hour before carrageenan challenge. Foot paw edema is induced by injecting 0.10 mL of the 1% carrageenan subcutaneously into the plantar portion of the right hind paw of each rat under light anesthesia. Initial foot paw volume is measured immediately following carrageenan challenge using mercury plethysmography (Buxco Electronics). Edema is measured 5 hours after carrageenan. The difference between the 5-hour and the initial paw volume is expressed as delta edema. The delta edema for each test group of animals is used to calculate the percent inhibition of edema achieved by the compound at the test dose compared with the vehicle control group. The ID40 (the dose at which swelling is inhibited by 40%) is calculated by probit analysis for the dose at which 40% inhibition occurs.

[2] = A23187, read-out: ARBL inhibition of LTB4 at given concentration
[3] = A23187, class symbol, read-out: ARBC inhibition at given concentration (N)
[4] = A23187, class symbol, read-out: ARBL inhibition at given concentration (N)

| SMILES | inhibition at 16 µM (5-lipoxygenase; [2]) [%] | inhibition at 16 µM (cyclooxygenase; [3]) [%] | also measured |
| --- | --- | --- | --- |
| CC(C)(C)c1cc(C(c2ccccc2)N(O)C(N)=O)cc(C(C)(C)C)c1O (stereo not shown) [Example 27, N-[[3,5-Bis(1,1-dimethylethyl)-4-hydroxyphenyl]-phenylmethyl]-N-hydroxyurea] |  |  | inhibition at 10 µM (5-lipoxygenase; [2]): 97%; inhibition at 10 µM (cyclooxygenase; [3]): < 40% |
| CC(C)C(=O)N(O)Cc1cc(C(C)(C)C)c(O)c(C(C)(C)C)c1 [Example 14, N-[[3,5-Bis(1,1-dimethylethyl)-4-hydroxyphenyl]-methyl]-N-hydroxy-2-methylpropanamide] | 95 | < 40 |  |
| CNC(=S)N(O)C(C)c1cc(C(C)(C)C)c(O)c(C(C)(C)C)c1 (stereo not shown) [Example 7, N-[1-[3,5-Bis(1,1-dimethylethyl)-4-hydroxyphenyl]-ethyl]-N-hydroxy-N'-methylthiourea] |  | < 40 | inhibition at 16 µM (5-lipoxygenase; [4]): < 40% |
| CN(O)C(c1ccccc1)c1cc(C(C)(C)C)c(O)c(C(C)(C)C)c1 (stereo not shown) [Example 19, 2,6-Bis(1,1-dimethylethyl)-4-[(hydroxymethylamino)phenylmethyl]phenol, monohydrochloride] |  |  | IC50 (5-lipoxygenase; 50% inhibition of LTB4 formation): 1200 nM; ED40 [1]: > 30 mg/kg; IC50 (cyclooxygenase; 50% inhibition of PGF2α formation): 4300 nM |
| CCOC(=O)N(O)C(c1ccccc1)c1cc(C(C)(C)C)c(O)c(C(C)(C)C)c1 (stereo not shown) [Example 23, N-[[3,5-Bis(1,1-dimethylethyl)-4-hydroxyphenyl]-phenylmethyl]hydroxycarbamic acid, ethyl ester] | 97 | < 40 |  |
| CONC(c1ccccc1)c1cc(C(C)(C)C)c(O)c(C(C)(C)C)c1 (stereo not shown) [Example 18, 2,6-Bis(1,1-dimethylethyl)-4-[(methoxyamino)phenylmethyl]phenol, monohydrochloride] |  |  | inhibition at 10 µM (5-lipoxygenase; [2]): 93%; inhibition at 10 µM (cyclooxygenase; [3]): < 40% |
| CC(=O)N(O)C(C)c1cc(C(C)(C)C)c(O)c(C(C)(C)C)c1 (stereo not shown) [Example 5, N-[1-[3,5-Bis(1,1-dimethylethyl)-4-hydroxyphenyl]-ethyl]-N-hydroxyacetamide] | > 90 | < 40 |  |
| CC(C)C(=O)ON(Cc1cc(C(C)(C)C)c(O)c(C(C)(C)C)c1)C(=O)C(C)C [Example 13, N-[[3,5-Bis(1,1-dimethylethyl)-4-hydroxyphenyl]-methyl]-2-methyl-N-[2-methyl-1-oxopropoxy]propanamide] | 49 | < 40 |  |
| CCNC(=O)N(O)C(C)c1cc(C(C)(C)C)c(O)c(C(C)(C)C)c1 (stereo not shown) [Example 9, N-[1-[3,5-Bis(1,1-dimethylethyl)-4-hydroxyphenyl]-ethyl]-N'-ethyl-N-hydroxyurea] | > 91 | < 40 |  |
| CNC(=O)N(O)C(C)c1cc(C(C)(C)C)c(O)c(C(C)(C)C)c1 (stereo not shown) [Example 8, N-[1-[3,5-Bis(1,1-dimethylethyl)-4-hydroxyphenyl]-ethyl]-N-hydroxy-N'-methylure] |  |  | inhibition at 16 µM (5-lipoxygenase; [4]): < 40%; inhibition at 16 µM (cyclooxygenase; A23187, read-out: ARBC inhibition of PGF2α at given concentration): 45% |
| CNC(=S)N(O)C(c1ccccc1)c1cc(C(C)(C)C)c(O)c(C(C)(C)C)c1 (stereo not shown) [Example 26, N-[[3,5-Bis(1,1-dimethylethyl)-4-hydroxyphenyl]-phenylmethyl]-N-hydroxy-N'-methylthiourea] | 98 | < 40 |  |
| CC(=O)N(O)Cc1cc(C(C)(C)C)c(O)c(C(C)(C)C)c1 [Example 15] | 90 | < 40 |  |
| CC(C)C(=O)N(O)C(c1ccccc1)c1cc(C(C)(C)C)c(O)c(C(C)(C)C)c1 (stereo not shown) [Example 21, N-[[3,5-Bis(1,1-dimethylethyl)-4-hydroxyphenyl]-phenylmethyl]-N-hydroxy-2-methylpropanamide] |  |  | ED40 [1]: 5.3 mg/kg |
| CCOC(=O)NC(=S)N(O)C(C)c1cc(C(C)(C)C)c(O)c(C(C)(C)C)c1 (stereo not shown) [Example 11, [[[1-[3,5-Bis(1,1-dimethylethyl)-4-hydroxyphenyl]-ethyl]hydroxyamino]-thioxomethyl]carbamic acid, ethyl ester, acetate (10:3)] | 91 | < 40 |  |
| CCOC(=O)N(O)C(C)c1cc(C(C)(C)C)c(O)c(C(C)(C)C)c1 (stereo not shown) [Example 6, [1-[3,5-Bis(1,1-dimethylethyl)-4-hydroxyphenyl]-ethyl]hydroxycarbamic acid, ethyl ester] | > 96 | < 40 |  |
| CC(C)C(=O)N(O)C(C)c1cc(C(C)(C)C)c(O)c(C(C)(C)C)c1 (stereo not shown) [Example 4, N-[1-[3,5-Bis(1,1-dimethylethyl)-4-hydroxyphenyl]-ethyl]-N-hydroxy-2-methylpropanamide] | > 91 | < 40 |  |
| CC(c1cc(C(C)(C)C)c(O)c(C(C)(C)C)c1)N(O)C(N)=O (stereo not shown) [Example 10, N-[1-[3,5-Bis(1,1-dimethylethyl)-4-hydroxylphenyl]-ethyl]-N-hydroxyurea] | 79 | < 40 |  |
| CC(=O)ON(Cc1cc(C(C)(C)C)c(O)c(C(C)(C)C)c1)C(C)=O [Example 12, N-(Acetyloxy)-N-[[3,5-bis(1,1-dimethylethyl)-4-hydroxyphenyl]methyl]acetamide, 0.3 hydrate] | 95 | < 40 |  |
| CCNC(=O)N(O)C(c1ccccc1)c1cc(C(C)(C)C)c(O)c(C(C)(C)C)c1 (stereo not shown) [Example 24, N-[[3,5-Bis(1,1-dimethylethyl)-4-hydroxyphenyl]-phenylmethyl]-N'-ethyl-N-hydroxyurea] | 99 | < 40 |  |
| CNC(=O)N(O)C(c1ccccc1)c1cc(C(C)(C)C)c(O)c(C(C)(C)C)c1 (stereo not shown) [Example 25, N-[[3,5-Bis(1,1-dimethylethyl)-4-hydroxyphenyl]-phenylmethyl]-N-hydroxy-N'-methylurea] | 93 | < 40 |  |
